Data published in the NIST ThermoML archive (doi:10.1016/j.fluid.2005.06.010).

Experiment: xn = mol fraction of the nth substance listed
Settings: Fluid (supercritical or subcritical phases), Vibrating tube method

c1ccc2ccccc2c1 [naphthalene] + O=C=O
Settings	mass density [kg/m3]
318.11 K, 16084 kPa, x1 = 0.0093	785.19
318.11 K, 16667 kPa, x1 = 0.0065	790.99
318.11 K, 16960 kPa, x1 = 0.0093	796.88
318.11 K, 17000 kPa, x1 = 0.0049	787.78
318.11 K, 17635 kPa, x1 = 0.0065	803.78
318.11 K, 17984 kPa, x1 = 0.0093	809.07
318.11 K, 17995 kPa, x1 = 0.0049	800.44
318.11 K, 18460 kPa, x1 = 0.0065	812.58
318.11 K, 18977 kPa, x1 = 0.0049	811.61
318.11 K, 18989 kPa, x1 = 0.0093	819.91
318.11 K, 19176 kPa, x1 = 0.0065	820.58
318.11 K, 19789 kPa, x1 = 0.0093	827.92
318.11 K, 19904 kPa, x1 = 0.0065	827.96
318.11 K, 20045 kPa, x1 = 0.0049	822.71
318.11 K, 20953 kPa, x1 = 0.0093	838.54
318.11 K, 20963 kPa, x1 = 0.0049	831.61
318.11 K, 21000 kPa, x1 = 0.0065	838.23
318.11 K, 21926 kPa, x1 = 0.0065	846.14
318.11 K, 22004 kPa, x1 = 0.0049	840.84
318.11 K, 22031 kPa, x1 = 0.0093	847.64
318.11 K, 22694 kPa, x1 = 0.0093	852.96
318.11 K, 22962 kPa, x1 = 0.0049	848.85
318.11 K, 22968 kPa, x1 = 0.0065	854.56
318.11 K, 23517 kPa, x1 = 0.0093	859.24
318.11 K, 23867 kPa, x1 = 0.0065	861.51
318.11 K, 24017 kPa, x1 = 0.0049	857.07
318.11 K, 24931 kPa, x1 = 0.0093	869.34
318.11 K, 24993 kPa, x1 = 0.0065	869.51
318.13 K, 9447 kPa, x1 = 0.0038	467.84
318.13 K, 9511 kPa, x1 = 0.0038	479.86
318.13 K, 9624 kPa, x1 = 0.0038	500.05
318.13 K, 9723 kPa, x1 = 0.0038	516.4
318.13 K, 9815 kPa, x1 = 0.0038	530.29
318.13 K, 10026 kPa, x1 = 0.0038	558.2
318.13 K, 11028 kPa, x1 = 0.0038	638.56
318.13 K, 12034 kPa, x1 = 0.0038	682.9
318.13 K, 13013 kPa, x1 = 0.0038	712.68
318.13 K, 14016 kPa, x1 = 0.0038	736.26
318.13 K, 15020 kPa, x1 = 0.0038	755.47
318.13 K, 15435 kPa, x1 = 0.0214	798.75
318.13 K, 15510 kPa, x1 = 0.0214	799.63
318.13 K, 15611 kPa, x1 = 0.0214	800.92
318.13 K, 15832 kPa, x1 = 0.0214	803.59
318.13 K, 16002 kPa, x1 = 0.0038	771.53
318.13 K, 16016 kPa, x1 = 0.0214	805.76
318.13 K, 16531 kPa, x1 = 0.0214	811.8
318.13 K, 16555 kPa, x1 = 0.0204	810.95
318.13 K, 17029 kPa, x1 = 0.0214	817.29
318.13 K, 17033 kPa, x1 = 0.0038	786.19
318.13 K, 17049 kPa, x1 = 0.0204	816.49
318.13 K, 17588 kPa, x1 = 0.0204	822.21
318.13 K, 18000 kPa, x1 = 0.0214	827.3
318.13 K, 18021 kPa, x1 = 0.0038	798.72
318.13 K, 18067 kPa, x1 = 0.0204	827.01
318.13 K, 18584 kPa, x1 = 0.0204	832.05
318.13 K, 19038 kPa, x1 = 0.0038	810.39
318.13 K, 19046 kPa, x1 = 0.0214	837.22
318.13 K, 19123 kPa, x1 = 0.0204	837.04
318.13 K, 19537 kPa, x1 = 0.0204	840.73
318.13 K, 20002 kPa, x1 = 0.0038	820.43
318.13 K, 20016 kPa, x1 = 0.0214	845.63
318.13 K, 20055 kPa, x1 = 0.0204	845.16
318.13 K, 20564 kPa, x1 = 0.0204	849.36
318.13 K, 21012 kPa, x1 = 0.0214	853.76
318.13 K, 21027 kPa, x1 = 0.0038	830.26
318.13 K, 21058 kPa, x1 = 0.0204	853.31
318.13 K, 21568 kPa, x1 = 0.0204	857.24
318.13 K, 22015 kPa, x1 = 0.0038	839.08
318.13 K, 22015 kPa, x1 = 0.0214	861.35
318.13 K, 22022 kPa, x1 = 0.0204	860.61
318.13 K, 22506 kPa, x1 = 0.0204	864.13
318.13 K, 23014 kPa, x1 = 0.0038	847.4
318.13 K, 24022 kPa, x1 = 0.0038	855.31
318.13 K, 25018 kPa, x1 = 0.0038	862.63
318.14 K, 19647 kPa, x1 = 0.0237	845.05
318.14 K, 19720 kPa, x1 = 0.0237	845.71
318.14 K, 19769 kPa, x1 = 0.0237	846.15
318.14 K, 19815 kPa, x1 = 0.0237	846.6
318.14 K, 19868 kPa, x1 = 0.0237	847.1
318.14 K, 19940 kPa, x1 = 0.0237	847.81
318.14 K, 20042 kPa, x1 = 0.0237	848.76
318.14 K, 20202 kPa, x1 = 0.0237	850.16
318.14 K, 20409 kPa, x1 = 0.0237	851.93
318.14 K, 20762 kPa, x1 = 0.0237	854.79
318.14 K, 21268 kPa, x1 = 0.0237	858.75
318.14 K, 21759 kPa, x1 = 0.0237	862.5
318.14 K, 22256 kPa, x1 = 0.0237	866.12
318.14 K, 22769 kPa, x1 = 0.0237	869.73
318.14 K, 23308 kPa, x1 = 0.0237	873.42
318.14 K, 23561 kPa, x1 = 0.0237	875.25
323.03 K, 14061 kPa, x1 = 0.0198	735.87
323.03 K, 14281 kPa, x1 = 0.0198	740.33
323.03 K, 14482 kPa, x1 = 0.0198	744.21
323.03 K, 15014 kPa, x1 = 0.0198	753.86
323.03 K, 16032 kPa, x1 = 0.0198	770.24
323.03 K, 17031 kPa, x1 = 0.0198	784.26
323.03 K, 18075 kPa, x1 = 0.0198	797.2
323.03 K, 19028 kPa, x1 = 0.0198	807.85
323.03 K, 20080 kPa, x1 = 0.0198	818.58
323.03 K, 21050 kPa, x1 = 0.0198	827.65
323.03 K, 22246 kPa, x1 = 0.0198	838
323.03 K, 24029 kPa, x1 = 0.0198	851.96
323.03 K, 24780 kPa, x1 = 0.0198	857.36
323.06 K, 16579 kPa, x1 = 0.0276	788.12
323.06 K, 16788 kPa, x1 = 0.0276	790.83
323.06 K, 17004 kPa, x1 = 0.0276	793.51
323.06 K, 17203 kPa, x1 = 0.0276	795.99
323.06 K, 17382 kPa, x1 = 0.0276	798.16
323.06 K, 17590 kPa, x1 = 0.0276	800.59
323.06 K, 17798 kPa, x1 = 0.0276	803
323.06 K, 18018 kPa, x1 = 0.0276	805.49
323.06 K, 18224 kPa, x1 = 0.0276	807.76
323.06 K, 18490 kPa, x1 = 0.0276	810.6
323.06 K, 18694 kPa, x1 = 0.0276	812.78
323.06 K, 19009 kPa, x1 = 0.0276	816
323.06 K, 19476 kPa, x1 = 0.0276	820.59
323.06 K, 19995 kPa, x1 = 0.0276	825.42
323.06 K, 21006 kPa, x1 = 0.0276	834.34
323.06 K, 22002 kPa, x1 = 0.0276	842.55
323.06 K, 22987 kPa, x1 = 0.0276	850.05
323.06 K, 24002 kPa, x1 = 0.0276	857.32
323.06 K, 24701 kPa, x1 = 0.0276	862.06
323.07 K, 10356 kPa, x1 = 0.0049	477.23
323.07 K, 10584 kPa, x1 = 0.0049	504.85
323.07 K, 11014 kPa, x1 = 0.0049	548.62
323.07 K, 11189 kPa, x1 = 0.0093	594.87
323.07 K, 11528 kPa, x1 = 0.0093	616.57
323.07 K, 12026 kPa, x1 = 0.0093	642.38
323.07 K, 12054 kPa, x1 = 0.0049	619.66
323.07 K, 12157 kPa, x1 = 0.0144	663.68
323.07 K, 12308 kPa, x1 = 0.0144	669.44
323.07 K, 12400 kPa, x1 = 0.0144	672.76
323.07 K, 12573 kPa, x1 = 0.0144	678.74
323.07 K, 12986 kPa, x1 = 0.0144	691.87
323.07 K, 12997 kPa, x1 = 0.0049	660.38
323.07 K, 13031 kPa, x1 = 0.0093	680.85
323.07 K, 13495 kPa, x1 = 0.0144	706.09
323.07 K, 14001 kPa, x1 = 0.0093	708.22
323.07 K, 14001 kPa, x1 = 0.0144	718.59
323.07 K, 14013 kPa, x1 = 0.0049	692.38
323.07 K, 14975 kPa, x1 = 0.0093	730.03
323.07 K, 15034 kPa, x1 = 0.0049	717.29
323.07 K, 15051 kPa, x1 = 0.0144	740.61
323.07 K, 15260 kPa, x1 = 0.0235	764.21
323.07 K, 15541 kPa, x1 = 0.0235	768.75
323.07 K, 15987 kPa, x1 = 0.0049	736.48
323.07 K, 15999 kPa, x1 = 0.0144	757.24
323.07 K, 16027 kPa, x1 = 0.0235	776.04
323.07 K, 16061 kPa, x1 = 0.0093	750.23
323.07 K, 16993 kPa, x1 = 0.0093	765.16
323.07 K, 17000 kPa, x1 = 0.0144	772.5
323.07 K, 17006 kPa, x1 = 0.0049	753.98
323.07 K, 17013 kPa, x1 = 0.0235	790.56
323.07 K, 18007 kPa, x1 = 0.0235	801.9
323.07 K, 18016 kPa, x1 = 0.0049	769.15
323.07 K, 18016 kPa, x1 = 0.0144	786.14
323.07 K, 18045 kPa, x1 = 0.0093	779.85
323.07 K, 18986 kPa, x1 = 0.0049	782.09
323.07 K, 18996 kPa, x1 = 0.0144	797.91
323.07 K, 19008 kPa, x1 = 0.0235	812.85
323.07 K, 19015 kPa, x1 = 0.0093	791.95
323.07 K, 19996 kPa, x1 = 0.0093	803.09
323.07 K, 20004 kPa, x1 = 0.0049	794.32
323.07 K, 20013 kPa, x1 = 0.0144	809.02
323.07 K, 20026 kPa, x1 = 0.0235	822.87
323.07 K, 20987 kPa, x1 = 0.0049	805.12
323.07 K, 20996 kPa, x1 = 0.0235	831.78
323.07 K, 21016 kPa, x1 = 0.0093	813.7
323.07 K, 21017 kPa, x1 = 0.0144	819.02
